Consider 38 compounds from US20050043378A1, “LTA4H modulators” (priority 2003, published 2005).

Where a name gives a salt, the structure may show the parent alone.

This experiment addresses T1, recombinant human LTA4 hydrolase (rhLTA4H) (Homo sapiens, UniProt P09960).
T1 construct: made in house; host or cells: Spodoptera frugiperda (Sf-9) cells, baculovirus (pFastBac1)
T1 sequence (P09960 1-611): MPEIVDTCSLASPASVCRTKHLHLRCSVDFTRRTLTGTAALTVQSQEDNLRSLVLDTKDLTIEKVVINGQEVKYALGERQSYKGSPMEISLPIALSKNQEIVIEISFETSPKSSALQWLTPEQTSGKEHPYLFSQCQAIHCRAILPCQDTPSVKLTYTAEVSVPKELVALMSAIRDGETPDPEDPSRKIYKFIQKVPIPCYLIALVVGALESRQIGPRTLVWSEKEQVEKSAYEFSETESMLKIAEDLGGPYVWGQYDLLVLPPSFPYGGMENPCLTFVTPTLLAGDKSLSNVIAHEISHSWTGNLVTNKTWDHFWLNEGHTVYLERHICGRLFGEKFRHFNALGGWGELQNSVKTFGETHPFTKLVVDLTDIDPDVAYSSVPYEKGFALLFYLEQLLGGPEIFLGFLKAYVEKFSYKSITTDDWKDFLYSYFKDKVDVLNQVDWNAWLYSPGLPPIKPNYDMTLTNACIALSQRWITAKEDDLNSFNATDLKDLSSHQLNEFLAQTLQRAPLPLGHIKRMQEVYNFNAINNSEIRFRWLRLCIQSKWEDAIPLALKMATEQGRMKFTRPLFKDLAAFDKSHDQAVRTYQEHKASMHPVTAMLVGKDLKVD
Nature of the experiment: Recombinant human LTA4 hydrolase assay for LTA4 hydrolase inhibitor activity.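 Note: enzyme expressed in Sf-9 insect cells, compound preincubated 10 min with enzyme, 10 min reaction at room temperature, uninhibited reaction as positive control, enzyme-free blank as negative control.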 The conditions noted are these: LTA4 substrate, LTB4 by immunoassay, average of one to three determinations. In kind it is biochemical.
Broadly, the IC50 is the concentration that gives 50% inhibition. Regarding `c1ccc2sc(Oc3ccc(OCCn4cnnn4)cc3)nc2c1` [Example 224, 2-[4-(2-Tetrazol-1-yl-ethoxy)-phenoxy]-benzothiazole], the IC50 was determined as 14 nM.

In the case of `NC1CCC1C(=O)NCC1CCN(Cc2ccc(Oc3nc4ccccc4s3)cc2)CC1` (centres unmarked) [Example 285, 2-Amino-cyclobutanecarboxylic acid {1-[4-(benzothiazol-2-yloxy)-benzyl]-piperidin-4-ylmethyl}-amide dihydrochloride], the IC50 worked out at 76 nM.

For the compound `NC(=O)C1CCN(CCOc2ccc(Cc3nc4ccccc4s3)cc2)CC1` [Example 147, 1-[2-(4-Benzothiazol-2-ylmethyl-phenoxy)-ethyl]-piperidine-4-carboxylic acid amide], the IC50 is 33 nM.

With `CCN(CC)Cc1ccc(Oc2nc3ccccc3s2)cc1` [Example 294, [4-(Benzothiazol-2-yloxy)-benzyl]-diethyl-amine], the IC50 was 6 nM.

Turning to `CCN(CCc1ccc(Oc2nc3ccccc3[nH]2)cc1)C1CCCCC1` [Example 123, {2-[4-(1H-Benzoimidazol-2-yloxy)-phenyl]-ethyl}-cyclohexyl-ethyl-amine], the IC50 was 4 nM.

As for `NC(=O)C1CCCN(CCc2ccc(Oc3nc4ccccc4s3)cc2)C1` (centres unmarked) [Example 31, 1-{2-[4-(Benzothiazol-2-yloxy)-phenyl]-ethyl}-piperidine-3-carboxylic acid amide], the IC50 was found to be 17 nM.

On to `c1ccc(Cn2nnnc2C2CCN(CCOc3ccc(Oc4nc5ccccc5s4)cc3)CC2)cc1` [Example 143, 2-(4-{2-[4-(1-Benzyl-1H-tetrazol-5-yl)-piperidin-1-yl]-ethoxy}-phenoxy)-benzothiazole], for which the IC50 was 64 nM.

For `c1ccc2sc(Oc3ccc(CCN4CCC(c5nnn[nH]5)CC4)cc3)nc2c1` [Example 262, 2-(4-{2-[4-(1H-Tetrazol-5-yl)-piperidin-1-yl]-ethyl}-phenoxy)-benzothiazole], the IC50 came to 4 nM.

For the compound `CN(C1CCN(Cc2ccc(Oc3nc4ccccc4s3)cc2)CC1)S(C)(=O)=O` [Example 255, N-{1-[4-(Benzothiazol-2-yloxy)-benzyl]-piperidin-4-yl}-N-methyl-methanesulfonamide], the IC50 is 1 nM.

Consider `O=C1NCCC12CCN(CCOc1ccc(Oc3nc4ccccc4s3)cc1)CC2` [Example 25, 8-{2-[4-(Benzothiazol-2-yloxy)-phenoxy]-ethyl}-2,8-diaza-spiro[4.5]decan-1-one], for which the IC50 was found to be 4 nM.

On to `O=C1CCCN1C1CCN(CCOc2ccc(Oc3nc4ccccc4[nH]3)cc2)CC1` [Example 231, 1-(1-{2-[4-(1H-Benzoimidazol-2-yloxy)-phenoxy]-ethyl}-piperidin-4-yl)-pyrrolidin-2-one], for which the IC50 worked out at 18 nM.

`NC(=O)CCN(CCc1ccc(Oc2nc3ccccc3s2)cc1)C1CC1` [Example 214, 3-({2-[4-(Benzothiazol-2-yloxy)-phenyl]-ethyl}-cyclopropyl-amino)-propionamide]: the IC50 was found to be 18 nM.

With `O=C(O)[C@@H]1CCCN(CCc2ccc(Oc3nc4ccccc4s3)cc2)C1` [Example 183, (R)-1-{2-[4-(Benzothiazol-2-yloxy)-phenyl]-ethyl}-piperidine-3-carboxylic acid], the half-inhibitory concentration (IC50) came out at 18 nM.

For the compound `OC(COc1ccc(Oc2nc3ccccc3o2)cc1)CN1CCCC1` (centres unmarked) [Example 135, 1-[4-(Benzooxazol-2-yloxy)-phenoxy]-3-pyrrolidin-1-yl-propan-2-ol], the IC50 turned out to be 92 nM.

As to `c1ccc2oc(Oc3ccc(CN4CCCCC4)cc3)nc2c1` [Example 271, 2-(4-Piperidin-1-ylmethyl-phenoxy)-benzooxazole], the IC50 is 2 nM.

Take `O=S(=O)(c1ccc(Cl)cc1)N(C1CC1)C1CCN(CCOc2ccc(Oc3nc4ccccc4s3)cc2)CC1` [Example 168, N-(1-{2-[4-(Benzothiazol-2-yloxy)-phenoxy]-ethyl}-piperidin-4-yl)-4-chloro-N-cyclopropyl-benzene sulfonamide]: the IC50 worked out at 27 nM.

For the compound `O=C(CN1CCN(CCOc2ccc(Oc3nc4ccccc4s3)cc2)CC1)N1CCCC1` [Example 153, 2-(4-{2-[4-(Benzothiazol-2-yloxy)-phenoxy]-ethyl}-piperazin-1-yl)-1-pyrrolidin-1-yl-ethanone], the half-maximal inhibitory concentration (IC50) stood at 8 nM.

Turning to `OCC1CCCN(CCOc2ccc(Oc3nc4ccccc4s3)cc2)C1` (centres unmarked) [Example 265, (1-{2-[4-(Benzothiazol-2-yloxy)-phenoxy]-ethyl}-piperidin-3-yl)-methanol], the half-maximal inhibitory concentration (IC50) was found to be 112 nM.

Take `COC(=O)NC1CCN(Cc2ccc(Oc3nc4ccccc4s3)cc2)CC1` [Example 363, {1-[4-(Benzothiazol-2-yloxy)-benzyl]-piperidin-4-yl}-carbamic acid methyl ester]: the IC50 came out at 4 nM.

`O=C(O)C1CC1CN(CCc1ccc(Oc2nc3ccccc3s2)cc1)C1CC1` (centres unmarked) [Example 211, 2-[({2-[4-(Benzothiazol-2-yloxy)-phenyl]-ethyl}-cyclopropyl-amino)-methyl]-cyclopropanecarboxylic acid]: the 50% inhibitory concentration (IC50) stood at 9 nM.

On to `NC(=S)NC1CCN(Cc2ccc(Oc3nc4ccccc4s3)cc2)CC1` [Example 479, {1-[4-(Benzothiazol-2-yloxy)-benzyl]-piperidin-4-yl}-thiourea], for which the IC50 is 7 nM.

On to `O=C(O)CN1CCN(Cc2ccc(Oc3nc4ccccc4s3)cc2)CC1` [Example 366, {4-[4-(Benzothiazol-2-yloxy)-benzyl]-piperazin-1-yl}-acetic acid], for which the IC50 was 39 nM.

Consider `CN(C)CCCOc1ccc(Oc2nc3ccccc3o2)cc1` [Example 45, {3-[4-(Benzooxazol-2-yloxy)-phenoxy]-propyl}-dimethyl-amine], for which the IC50 came to 15 nM.

For the compound `O=C(O)CCN(CCc1ccc(Oc2nc3ccccc3s2)cc1)Cc1ccccc1` [Example 192, 3-({2-[4-(Benzothiazol-2-yloxy)-phenyl]-ethyl}-benzyl-amino)-propionic acid], the IC50 is 3 nM.

With `CCCN(CCc1ccc(Oc2nc3ccccc3o2)cc1)CC1CC1` [Example 92, {2-[4-(Benzooxazol-2-yloxy)-phenyl]-ethyl}-cyclopropylmethyl-propyl-amine], the concentration for half-maximal inhibition (IC50) was found to be 1 nM.

With `O=C(O)CCC1CCN(CCc2ccc(Oc3nc4ccccc4s3)cc2)CC1` [Example 202, 3-(1-{2-[4-(Benzothiazol-2-yloxy)-phenyl]-ethyl}-piperidin-4-yl)-propionic acid], the 50% inhibitory concentration (IC50) amounted to 4 nM.

As for `O=C(O)[C@@H]1CCCC[C@H]1NCCc1ccc(Oc2nc3ccccc3s2)cc1` [Example 225, (1 R,2R)-2-{2-[4-(Benzothiazol-2-yloxy)-phenyl]-ethylamino}-cyclohexanecarboxylic acid], the IC50 amounted to 25 nM.

Regarding `O=C(Cc1ccccc1)NC1CCN(CCOc2ccc(Oc3nc4ccccc4o3)cc2)CC1` [Example 78, N-(1-{2-[4-(Benzooxazol-2-yloxy)-phenoxy]-ethyl}-piperidin-4-yl)-2-phenyl-acetamide], the IC50 is 3 nM.

For `Oc1ccc(N2CCN(CCOc3ccc(Oc4nc5ccccc5s4)cc3)CC2)cc1` [Example 167, 4-(4-{2-[4-(Benzothiazol-2-yloxy)-phenoxy]-ethyl}-piperazin-1-yl)-phenol], the concentration for half-maximal inhibition (IC50) came out at 37 nM.

Consider `CCN(CC)CCOc1ccc(Oc2nc3ccc(Cl)cc3s2)cc1` [Example 12, {2-[4-(6-Chloro-benzothiazol-2-yloxy)-phenoxy]-ethyl}-diethyl-amine], for which the IC50 came to 100 nM.

Regarding `c1ccc2[nH]c(Oc3ccc(CCN4CCCCC4)cc3)nc2c1` [Example 230, 2-[4-(2-Piperidin-1-yl-ethyl)-phenoxy]-1H-benzoimidazole], the IC50 was 36 nM.

Consider `OC1(c2ccc(Cl)cc2)CCN(CCOc2ccc(Oc3nc4ccccc4o3)cc2)CC1` [Example 59, 1-{2-[4-(Benzooxazol-2-yloxy)-phenoxy]-ethyl}-4-(4-chloro-phenyl)-piperidin-4-ol], for which the IC50 is 5 nM.

In the case of `c1ccc2sc(Oc3ccc(CCN4CCN(CCN5CCOCC5)CC4)cc3)nc2c1` [Example 146, 2-(4-{2-[4-(2-Morpholin-4-yl-ethyl)-piperazin-1-yl]-ethyl}-phenoxy)-benzothiazole], the IC50 worked out at 43 nM.

With `c1ccc2oc(Oc3ccc(OCCN4CCC4)cc3)nc2c1` [Example 77, 2-[4-(2-Azetidin-1-yl-ethoxy)-phenoxy]-benzooxazole], the IC50 was determined as 10 nM.

As to `OC1(c2ccccc2)CCN(CCOc2ccc(Oc3nc4ccccc4[nH]3)cc2)CC1` [Example 37, 1-{2-[4-(1H-Benzoimidazol-2-yloxy)-phenoxy]-ethyl}-4-phenyl-piperidin-4-ol], the IC50 is 10 nM.

Turning to `c1ccc2sc(Oc3ccc(CCN(CCCc4nn[nH]n4)C4CC4)cc3)nc2c1` [Example 389, {2-[4-(Benzothiazol-2-yloxy)-phenyl]-ethyl}-cyclopropyl-[3-(2H-tetrazol-5-yl)-propyl]-amine], the IC50 is 2 nM.

Consider `CCN(CCO)Cc1ccc(Oc2nc3ccccc3s2)cc1` [Example 287, 2-{[4-(Benzothiazol-2-yloxy)-benzyl]-ethyl-amino}-ethanol], for which the IC50 is 28 nM.

On to `CCOC(=O)C1CCN(CCOc2ccc(Oc3nc4ccccc4[nH]3)cc2)CC1` [Example 485, 1-{2-[4-(1H-Benzoimidazol-2-yloxy)-phenoxy]-ethyl}-piperidine-4-carboxylic acid ethyl ester], for which the half-maximal inhibitory concentration (IC50) amounted to 39 nM.
